We go through one molecule from patent US20150065709A1, “Aminoquinazoline Derivative And Use Thereof In Preparing Anti-Malignant Tumor Medicament” (METABOMICS, INC, priority 2012, published 2015).

In one series the target is EGFR (Homo sapiens, UniProt P00533). Description: Caliper Mobility Shift Assay, inhibition of EGFR kinase activity. The format is biochemical.
A further series addresses HER2 (Homo sapiens, UniProt P04626). Briefly: Caliper Mobility Shift Assay, inhibition of HER2 kinase activity. The format is biochemical.
The target in another series is EGFR^L858R/T790M (Homo sapiens, UniProt P00533, L858R/T790M). Briefly: Caliper Mobility Shift Assay, double mutant EGFR kinase. The format is biochemical. As to conditions: read-out: Inhibition of Kinase Activity (IC50, nM) EGFR^L858R/T790M. As to the method:
Half maximal inhibitory concentration IC50 (the concentration of a compound that is required for 50% inhibition of the activity of an enzyme) was tested based on an immobilized enzyme mixing with a specific substrate and the test compounds in different concentrations. The used test method was Caliper Mobility Shift Assay. […] […].
According to the same test method, the inhibitory effects of the compound of Formula Ie on mutant EGFR kinases were tested, including single mutant EGFR^LS58R, EGFR^T790M and double mutant EGFR^L858R/T790M kinases.

Series [1] concerns H1975 human non-small cell lung cancer tumor cells. Description: Transplanted tumor in nude mice, initial H1975 test. The format is in vivo, nude mice (BALB/c). As to the method: H1975 human non-small cell lung cancer tumor cells were inoculated into 18 nude mice (BALB/c, male, 5-6 weeks of age), and when the mean tumor volume reaches 150 mm^3 the nude mice were randomized into three groups, including: control group (5 nude mice), 20 mg compound Ie/kg/day dose group (8 nude mice) and 75 mg Gefitinib/kg/day (5 nude mice). Test compounds were continuously administrated orally for 21 days. Tumor size and body weight of nude mice were recorded twice weekly from the first day of administration. […] was calculated using the formula (1×w^2), wherein 1 and w respectively represents the maximum and minimum size in each measurement. The change relation of mean tumor volume with the days after tumor transplantation was graphed according to the calculation results.

The test system of series [2] is A549 (non-small cell lung cancer). Description: Transplanted tumor in nude mice, A549 model. The format is in vivo, nude mice (BALB/c). From the text: (§1) Furthermore, more pharmacological models of tumor cell lines in nude mice were utilized to validate the inhibitory effects of compound Ie. The test method was specifically described as follows: H1975, A549, HCC827, A431, N87, MDA-MD-468 and CAL27 tumor cells respectively were inoculated into nude mice (BALB/c, male, 5-6 weeks of age), and when the mean tumor volume reaches 150 mm^3 mice was randomized into groups. The H1975 tumor model in nude mice includes one positive control group and three dosage groups of compound Ie (6.7 mg/kg/day, 13.4 mg/kg/day, and 20.1 mg/kg/day. The A549 tumor model in nude mice includes one positive control group, two dosage groups of compound Ie (10 mg/kg/day, 20 mg/kg/day), and one dosage group of Docetaxel (12 mg/kg/day). The HCC827 tumor model in nude mice includes one positive control group, two dosage groups of compound Ie (0.5 mg/kg/day, 2.5 mg/kg/day), and one dosage group of Erlotinib (12.5 mg/kg/day). The A431 tumor model in nude mice includes one positive control group, two dosage groups of compound Ie (2.5 mg/kg/day, 5 mg/kg/day), and one dosage group of Erlotinib (50 mg/kg/day). […] The tumor size and body weight of nude mice were recorded twice weekly from the first day of administration. The tumor volume was calculated using formula (1×w^2), wherein 1 and w respectively represents the maximum and minimum size in each measurement. […]

In a further series the test system is A431(EGFR). Briefly: Transplanted tumor in nude mice, A431 model. The format is in vivo, nude mice (BALB/c).
From the text: as §1

The subject of series [3] is MDA-MD-468 (breast cancer). Briefly: Transplanted tumor in nude mice, MDA-MD-468 model. The format is in vivo, nude mice (BALB/c).
From the text: as §1

A short description of series [4]: Long-term toxicity experiment (28 days) in rats. The format is in vivo. The conditions noted are these: for toxicity reaction: po. As to the method:
(§2) Experiment Animals: rats, male, 6-8 weeks of age, body weight: 180-250 g; dogs, male, about 24 months, body weight: 7-10 kg.
(§3) Preparation of sample: in rat's experiments the mixed formulation powder of the compound Ie was formulated into 0.1, 0.3 and 1 mg/mL homogeneous suspension for use; administration route: oral administration; […]. In dog's experiments the tablets of compound Ie were fed to dogs. […].
(§4) Sample collection: blood was collected at the time points of 1, 10, 20 and 28 days respectively, about 120-200 μL whole blood was collected from 3 animals at each time point. Blood was collected at 1 h, 4 h, 8 h and 24 h after administration.
(§5) Sample analysis: the collected samples were detected by LC-MS/MS, and the instrument model was SHIMADZU20 A-API4000.
(§6) Pharmacokinetic data analysis: the obtained plasma concentration data were fitted and calculated using WinNolin according to non-compartment model.

Series [5] in a line: Long-term toxicity experiment (28 days) in dogs. The format is in vivo. As to the method:
as §2, §3, §4, §5, §6

Chain of EGFR (P00533 25-1210): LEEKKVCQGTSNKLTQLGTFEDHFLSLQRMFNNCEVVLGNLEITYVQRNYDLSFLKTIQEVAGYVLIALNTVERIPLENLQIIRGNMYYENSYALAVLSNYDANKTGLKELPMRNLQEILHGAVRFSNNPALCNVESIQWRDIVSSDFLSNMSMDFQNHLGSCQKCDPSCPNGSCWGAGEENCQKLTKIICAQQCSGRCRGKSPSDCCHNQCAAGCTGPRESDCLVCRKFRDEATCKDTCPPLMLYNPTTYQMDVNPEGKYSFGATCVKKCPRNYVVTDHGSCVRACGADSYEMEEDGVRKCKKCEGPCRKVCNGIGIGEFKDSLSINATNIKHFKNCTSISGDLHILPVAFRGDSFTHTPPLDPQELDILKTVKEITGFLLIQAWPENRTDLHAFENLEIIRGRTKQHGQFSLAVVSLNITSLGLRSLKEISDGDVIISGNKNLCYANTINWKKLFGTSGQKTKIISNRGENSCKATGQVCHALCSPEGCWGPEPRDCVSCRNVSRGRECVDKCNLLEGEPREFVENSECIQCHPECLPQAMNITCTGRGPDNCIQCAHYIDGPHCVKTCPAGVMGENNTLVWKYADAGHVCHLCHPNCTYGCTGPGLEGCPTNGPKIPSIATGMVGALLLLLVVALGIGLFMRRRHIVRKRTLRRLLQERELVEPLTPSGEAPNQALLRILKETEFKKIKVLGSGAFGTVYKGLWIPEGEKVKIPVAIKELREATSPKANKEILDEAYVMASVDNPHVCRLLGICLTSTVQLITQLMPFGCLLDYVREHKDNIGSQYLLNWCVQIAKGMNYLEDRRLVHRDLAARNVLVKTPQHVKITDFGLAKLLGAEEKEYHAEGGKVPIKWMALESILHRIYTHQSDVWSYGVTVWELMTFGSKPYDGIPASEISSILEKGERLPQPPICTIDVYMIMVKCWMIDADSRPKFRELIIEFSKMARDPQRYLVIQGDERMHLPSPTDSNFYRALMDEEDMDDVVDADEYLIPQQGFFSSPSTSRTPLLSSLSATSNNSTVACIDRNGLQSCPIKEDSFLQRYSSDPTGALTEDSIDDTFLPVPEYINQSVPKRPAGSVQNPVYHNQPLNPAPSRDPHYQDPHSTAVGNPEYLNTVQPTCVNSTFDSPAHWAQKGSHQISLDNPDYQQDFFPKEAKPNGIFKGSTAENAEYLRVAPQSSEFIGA
Chain of HER2 (P04626 23-1255): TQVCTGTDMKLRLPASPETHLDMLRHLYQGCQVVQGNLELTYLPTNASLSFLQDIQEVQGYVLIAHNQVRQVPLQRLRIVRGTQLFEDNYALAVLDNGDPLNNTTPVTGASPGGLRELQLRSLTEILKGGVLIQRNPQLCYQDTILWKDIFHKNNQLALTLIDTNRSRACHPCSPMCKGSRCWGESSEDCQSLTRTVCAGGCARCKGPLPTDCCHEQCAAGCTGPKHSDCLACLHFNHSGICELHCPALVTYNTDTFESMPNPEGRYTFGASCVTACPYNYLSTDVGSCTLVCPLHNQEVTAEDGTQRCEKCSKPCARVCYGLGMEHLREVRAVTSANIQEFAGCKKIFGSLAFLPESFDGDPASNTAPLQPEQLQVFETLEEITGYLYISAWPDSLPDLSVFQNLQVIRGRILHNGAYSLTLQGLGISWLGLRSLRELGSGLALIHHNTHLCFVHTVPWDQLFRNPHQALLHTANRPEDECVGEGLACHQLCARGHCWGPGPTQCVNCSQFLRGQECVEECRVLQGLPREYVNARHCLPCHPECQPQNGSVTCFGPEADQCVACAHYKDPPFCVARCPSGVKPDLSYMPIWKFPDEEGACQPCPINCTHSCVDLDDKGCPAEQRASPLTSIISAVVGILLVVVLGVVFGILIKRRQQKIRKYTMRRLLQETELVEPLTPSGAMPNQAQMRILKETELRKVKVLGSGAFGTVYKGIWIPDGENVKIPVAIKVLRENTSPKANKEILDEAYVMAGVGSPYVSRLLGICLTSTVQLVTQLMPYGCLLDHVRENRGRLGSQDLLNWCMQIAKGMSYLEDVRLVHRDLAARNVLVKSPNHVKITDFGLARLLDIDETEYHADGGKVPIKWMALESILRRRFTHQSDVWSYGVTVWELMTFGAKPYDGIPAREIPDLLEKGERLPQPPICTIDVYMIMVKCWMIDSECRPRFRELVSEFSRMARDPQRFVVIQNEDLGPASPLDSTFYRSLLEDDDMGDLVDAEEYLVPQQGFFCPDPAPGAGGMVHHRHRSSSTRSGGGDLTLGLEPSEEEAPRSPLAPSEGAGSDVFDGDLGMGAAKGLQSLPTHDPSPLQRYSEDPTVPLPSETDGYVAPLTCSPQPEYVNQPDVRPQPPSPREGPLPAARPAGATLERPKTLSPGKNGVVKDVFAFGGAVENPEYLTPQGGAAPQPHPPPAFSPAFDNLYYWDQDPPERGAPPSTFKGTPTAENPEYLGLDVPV
Chain of EGFR^L858R/T790M (P00533 25-1210 T790M/L858R): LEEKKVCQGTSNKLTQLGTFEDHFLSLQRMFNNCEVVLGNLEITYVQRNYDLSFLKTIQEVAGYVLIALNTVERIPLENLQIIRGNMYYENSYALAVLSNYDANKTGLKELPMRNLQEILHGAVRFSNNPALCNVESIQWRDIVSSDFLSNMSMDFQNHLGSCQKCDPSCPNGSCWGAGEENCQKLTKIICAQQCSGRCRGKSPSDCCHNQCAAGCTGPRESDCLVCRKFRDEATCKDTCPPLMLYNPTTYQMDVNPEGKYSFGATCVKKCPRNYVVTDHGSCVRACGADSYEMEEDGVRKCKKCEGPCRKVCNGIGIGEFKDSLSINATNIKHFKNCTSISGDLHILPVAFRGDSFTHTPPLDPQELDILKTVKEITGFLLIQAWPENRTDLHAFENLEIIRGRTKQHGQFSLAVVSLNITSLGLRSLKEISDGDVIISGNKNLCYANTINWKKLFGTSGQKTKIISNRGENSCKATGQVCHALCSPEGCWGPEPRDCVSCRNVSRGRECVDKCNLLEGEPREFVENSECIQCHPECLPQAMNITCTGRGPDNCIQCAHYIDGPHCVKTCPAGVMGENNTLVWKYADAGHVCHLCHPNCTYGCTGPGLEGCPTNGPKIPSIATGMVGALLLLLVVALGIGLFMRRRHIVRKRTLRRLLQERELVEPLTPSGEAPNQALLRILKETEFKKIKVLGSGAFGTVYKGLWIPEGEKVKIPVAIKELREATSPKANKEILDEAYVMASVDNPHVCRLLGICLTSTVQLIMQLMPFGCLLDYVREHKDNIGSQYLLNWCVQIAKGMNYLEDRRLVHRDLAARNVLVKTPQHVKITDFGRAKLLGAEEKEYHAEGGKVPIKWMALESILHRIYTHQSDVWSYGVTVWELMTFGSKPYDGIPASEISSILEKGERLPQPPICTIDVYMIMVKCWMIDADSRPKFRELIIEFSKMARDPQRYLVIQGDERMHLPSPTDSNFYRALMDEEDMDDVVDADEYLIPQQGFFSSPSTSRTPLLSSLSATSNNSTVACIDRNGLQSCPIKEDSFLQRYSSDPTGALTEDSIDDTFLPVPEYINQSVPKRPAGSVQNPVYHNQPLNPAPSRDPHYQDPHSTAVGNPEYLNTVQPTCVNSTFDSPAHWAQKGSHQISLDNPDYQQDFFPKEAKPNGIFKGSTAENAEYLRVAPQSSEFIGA

As for `CN(C)C/C=C/C(=O)Nc1cc2c(Nc3ccc(F)c(Cl)c3)ncnc2cc1OC(F)F` [Compound Ie], the IC50 was 0.4 nM on EGFR, 11.7 nM at HER2 and 11 nM at EGFR^L858R/T790M. Further, the “inhibitory effect on EGFR kinases relative to Afatinib, Neratinib and Gefitinib” value at EGFR is reported as “over two times”. The molecule further gave a T/C % in series [1] (H1975 tumor model, 20 mg compound Ie/kg/day orally for 21 days) of 59%. For the same molecule, the “therapeutic effect on H1975 tumor model” value in series [1] (compound Ie 20 mg/kg/day, Gefitinib 75 mg/kg/day, orally for 21 days) was “good therapeutic effect”. Further, the “inhibitory and therapeutic effects on A549 tumor model” value in series [2] (10, 20 mg/kg/day orally for 21 days) was “strong inhibitory effects and therapeutic effects”. In series [2] (versus Docetaxel (12 mg/kg/day)), the “inhibitory effects on tumor cell growth compared with other drugs, A549 model” value is “stronger inhibitory effects”. In addition, the “inhibitory and therapeutic effects on A431 tumor model” value in the series on A431(EGFR) (2.5, 5 mg/kg/day orally for 21 days) is “strong inhibitory effects and therapeutic effects”. In addition, the “inhibitory effects on tumor cell growth compared with other drugs, A431 model” value in the series with A431(EGFR) (versus Erlotinib (50 mg/kg/day)) is given as “stronger inhibitory effects”. For the same molecule, the “inhibitory and therapeutic effects on MDA-MD-468 tumor model” value in series [3] (5, 10 mg/kg/day orally for 21 days) is “strong inhibitory effects and therapeutic effects”. Further, in series [3] (versus Docetaxel (12 mg/kg/week) and Afatinib (30 mg/kg/day)), the “inhibitory effects on tumor cell growth compared with other drugs, MDA-MD-468 model” value is “stronger inhibitory effects”. Moreover, in series [4] (rat, in vivo), the “reversibility of toxicity reaction after drug withdrawal” value was “reversible”. For the same molecule, the toxicity reaction result in series [4] (rat, in vivo, 1 mg/kg) is “no toxicity reaction”; in series [4] (rat, in vivo, 3 mg/kg), “no toxicity reaction”; in series [5] (dog, in vivo, 1 mg/kg) it was “No toxicity reaction”; in [5] (dogs, 5 mg/kg, 28 days, reaction of Afatinib group greater than compound Ie group), “toxicity reactions”. For the same molecule, the “AUC relative to Afatinib in the same dosage” value in series [4] (rats, oral, 28 days) is “about 5 times”. Also, the “time after drug withdrawal until weight close to control group” value in [4] (rats, 1, 3 and 10 mg/kg groups) fell in the range of 5 to 6 days. Moreover, the “weight recovery after drug withdrawal” value in series [4] (rats, compound Ie 1, 3 and 10 mg/kg groups) is on record as “regain weight very quickly”.
